Test results reported in paper PMC9090415, “Discovery of small molecule inhibitors of Plasmodium falciparum apicoplast DNA polymerase” (Journal of Enzyme Inhibition and Medicinal Chemistry, 2022).

Biological target: P. falciparum apicoplast DNA polymerase (Pf-apPOL) (Plasmodium falciparum, UniProt Q8ILY1)
Test: Fluorescence-based high-throughput DNA polymerase assay (molecular beacon), primary screen and dose-response
Assay type: biochemical
Experimental: The HT assay employs a molecular beacon, a stem-loop DNA template with a Cy3 dye and the Black Hole Quencher on the 3′ and 5′ ends of the DNA, respectively. Pf-apPOL concentration is based on a calculated absorptivity of ε280 = 56750 M^−1 cm^−1. Reactions were carried out at 25 °C, using Corning 3575 […] (well-volume, 20 µL). Assays testing for compound inhibition composed of reaction buffer (pH 7.9 in 50 mM potassium acetate, 20 mM Tris-acetate and 10 mM magnesium acetate), Pf-apPOL (20 nM), DNA substrate (20 nM), dNTPs (6 µM), and compound (10 µM in DMSO). The DNA and nucleotide substrates (dNTPs) were at concentrations of 20 nM and 6 µM, respectively, in the assay. Pf-apPOL was incubated in the reaction buffer with dNTPs and the compound of interest (10 µM, in the assay) at 25 °C for 10 min. The DNA substrate was then added and the reaction was allowed to proceed for 90 min at 25 °C.
Each assay plate contained 16 negative controls (no Pf-apPOL, DMSO present) and 16 positive controls (Pf-apPOL present, no DMSO). The fluorescence of each well was determined using a BioTek Synergy Neo fluorescence plate reader using excitation and emission wavelengths of 555 and 570 nm, respectively.
In the above, Min is the average of fluorescence emission of the negative controls (substrate only), Max the average fluorescence emission from the positive controls (enzyme + substrate), and Test the emission from the assays in the presence of compounds (enzyme + compound + substrates). […] […] The IC50 of each compound was determined using Equation (2): (2) IC50= Vmax/(1+ (I/IC50)^n)
In the above, n measures cooperativity, with n > 1 indicating synergistic binding of more than a single molecule of the compound.
To identify apPOL inhibitors we utilised our previously developed high-throughput DNA polymerase assay. The HT assay is based on a molecular beacon DNA template that forms a stem-loop with a Cy3 dye and the Black Hole Quencher on the 3′ and 5′ ends of the DNA, respectively. DNA polymerase activity extends an annealed primer through the stem region, displacing the fluorophore from the quencher, thereby increasing its fluorescence (Figure 1(A)). The assay accurately recapitulates the kinetic behaviour of apPOL, as measured through more conventional low-throughput gel-based assays. The Z′ factor for the assay described here was 0.9 across all plates (data not shown).
Figure 1. High-throughput screening. (A) The fluorescent-based DNA polymerase assay used to screen the compound libraries. The DNA template strand is a hairpin loop with a primer annealed to the loop. The 3’ end of the primer is 11 bases away from the 6 bp duplex. Strand displacement activity of the DNA polymerase separates the Cy3 dye from the Black hole quencher leading to an increase in fluorescent signal. (B) The high-throughput assay workflow. The DNA polymerase is incubated with […] compound for 10 min prior to addition of the hairpin substrate. The reaction is quenched at 3 different time points and the fluorescent signal is measured and % inhibition is determined using the provided equation.

[1] = primary screen value of the 186 hits; unit not given; 90 min, 10 µM

Sequence of P. falciparum apicoplast DNA polymerase (Pf-apPOL) (Q8ILY1 entry or part of it): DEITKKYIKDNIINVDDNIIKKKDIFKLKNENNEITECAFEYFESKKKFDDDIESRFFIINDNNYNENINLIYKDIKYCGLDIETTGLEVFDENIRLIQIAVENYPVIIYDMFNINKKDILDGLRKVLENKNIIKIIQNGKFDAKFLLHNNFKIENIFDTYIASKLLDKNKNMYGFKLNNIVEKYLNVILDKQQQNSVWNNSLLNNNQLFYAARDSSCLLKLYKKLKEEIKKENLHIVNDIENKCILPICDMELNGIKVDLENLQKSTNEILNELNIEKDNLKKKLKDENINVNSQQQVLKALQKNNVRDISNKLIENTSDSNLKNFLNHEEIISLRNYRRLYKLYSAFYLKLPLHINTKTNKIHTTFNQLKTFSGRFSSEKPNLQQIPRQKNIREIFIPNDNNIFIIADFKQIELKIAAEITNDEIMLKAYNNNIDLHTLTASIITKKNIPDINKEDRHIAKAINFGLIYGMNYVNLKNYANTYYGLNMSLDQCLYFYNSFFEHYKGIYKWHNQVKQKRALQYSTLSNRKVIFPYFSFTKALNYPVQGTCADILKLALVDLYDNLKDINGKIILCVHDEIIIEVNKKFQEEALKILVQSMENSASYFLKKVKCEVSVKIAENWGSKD

CCCCOC(=O)CCCCCN1C(=O)C(=Cc2ccc(OC)cc2)SC1=S [Molecule 75, CCCCOC(=O)CCCCCN1C(=S)SC(=Cc2ccc(cc2)OC)C1=O] was tested, and the “% inhibition Apo pol 10'” value (DRC-1; 10'; concentration 2.5) was -1.1804%, the “% inhibition Apo pol 10'” value (DRC-1; 10'; concentration 5) was 1.705% and the “% inhibition Apo pol 10'” value (DRC-1; 10'; concentration 10) was 11.988%. For the same compound, the “% inhibition Apo pol 10'” value (DRC-1; 10'; concentration 20) was 12.7699%, the “% inhibition Apo pol 10'” value (DRC-1; 10'; concentration 40) was 17.437% and the “% inhibition Apo pol 10'” value (DRC-1; 10'; concentration 80) was 85.0535%. The “% inhibition Apol 90'” value (DRC-1; 90'; concentration 2.5) was 3.6918%, the “% inhibition Apol 90'” value (DRC-1; 90'; concentration 5) was 7.9015% and the “% inhibition Apol 90'” value (DRC-1; 90'; concentration 10) was 19.2889%. The “% inhibition Apol 90'” value (DRC-1; 90'; concentration 20) was 19.2951%, the “% inhibition Apol 90'” value (DRC-1; 90'; concentration 40) was 23.7139% and the “% inhibition Apol 90'” value (DRC-1; 90'; concentration 80) was 84.541%. For the same compound, the “% inhibition apPOL 180'” value (DRC-1; 180'; concentration 2.5) was 6.465%, the “% inhibition apPOL 180'” value (DRC-1; 180'; concentration 5) was 11.5498% and the “% inhibition apPOL 180'” value (DRC-1; 180'; concentration 10) was 23.7615%. For the same compound, the “% inhibition apPOL 180'” value (DRC-1; 180'; concentration 20) was 23.8231%, the “% inhibition apPOL 180'” value (DRC-1; 180'; concentration 40) was 28.3946% and the “% inhibition apPOL 180'” value (DRC-1; 180'; concentration 80) was 81.7032%. For the same compound, the “% inhibition Apo pol 5'” value (DRC-2; 5'; concentration 2.5) was -2%, the “% inhibition Apo pol 5'” value (DRC-2; 5'; concentration 5) was 3% and the “% inhibition Apo pol 5'” value (DRC-2; 5'; concentration 10) was 20%. The “% inhibition Apo pol 5'” value (DRC-2; 5'; concentration 20) was 30%, the “% inhibition Apo pol 5'” value (DRC-2; 5'; concentration 40) was 45% and the “% inhibition Apo pol 5'” value (DRC-2; 5'; concentration 80) was 46%. The “% inhibition Apol 40'” value (DRC-2; 40'; concentration 2.5) was -0.735%, the “% inhibition Apol 40'” value (DRC-2; 40'; concentration 5) was 5% and the “% inhibition Apol 40'” value (DRC-2; 40'; concentration 10) was 24%. For the same compound, the “% inhibition Apol 40'” value (DRC-2; 40'; concentration 20) was 42%, the “% inhibition Apol 40'” value (DRC-2; 40'; concentration 40) was 66% and the “% inhibition Apol 40'” value (DRC-2; 40'; concentration 80) was 69%. For the same compound, the “% inhibition ApPOL 90'” value (DRC-2; 90'; concentration 2.5) was -1%, the “% inhibition ApPOL 90'” value (DRC-2; 90'; concentration 5) was 6.48% and the “% inhibition ApPOL 90'” value (DRC-2; 90'; concentration 10) was 25%. For the same compound, the “% inhibition ApPOL 90'” value (DRC-2; 90'; concentration 20) was 43%, the “% inhibition ApPOL 90'” value (DRC-2; 90'; concentration 40) was 71% and the “% inhibition ApPOL 90'” value (DRC-2; 90'; concentration 80) was 74%. For the same compound, the “% inhibition apPOL 180'” value (DRC-2; 180'; concentration 2.5) was -5%, the “% inhibition apPOL 180'” value (DRC-2; 180'; concentration 5) was 0.541% and the “% inhibition apPOL 180'” value (DRC-2; 180'; concentration 10) was 18%. The “% inhibition apPOL 180'” value (DRC-2; 180'; concentration 20) was 40%, the “% inhibition apPOL 180'” value (DRC-2; 180'; concentration 40) was 76% and the “% inhibition apPOL 180'” value (DRC-2; 180'; concentration 80) was 79%. For the same compound, the “DNA Pol” value [1] was 27 and the “DNA Pol” value (primary screen value, head "DNA Pol", unit not given; 90 min, 10 µM) was 27.

CCOc1ccc2cc(C3=NN(C(=O)CCC(=O)O)C(c4ccc(C)cc4)C3)c(=O)[nH]c2c1 (centres unmarked) [KU0056200] was tested, and the “% inhibition Apo pol 10'” value (DRC-1; concentration 2.5; 10') was 1.583%, the “% inhibition Apol 90'” value (DRC-1; concentration 2.5; 90') was -4.0405% and the “% inhibition apPOL 180'” value (DRC-1; concentration 2.5; 180') was -8.679%. The “% inhibition Apo pol 10'” value (DRC-1; concentration 5; 10') was 6.049%, the “% inhibition Apol 90'” value (DRC-1; concentration 5; 90') was 0.1368% and the “% inhibition apPOL 180'” value (DRC-1; concentration 5; 180') was -5.456%. For the same compound, the “% inhibition Apo pol 10'” value (DRC-1; concentration 10; 10') was 12.8328%, the “% inhibition Apol 90'” value (DRC-1; concentration 10; 90') was 2.997% and the “% inhibition apPOL 180'” value (DRC-1; concentration 10; 180') was -3.315%. For the same compound, the “% inhibition Apo pol 10'” value (DRC-1; concentration 20; 10') was 32.0591%, the “% inhibition Apol 90'” value (DRC-1; concentration 20; 90') was 18.8847% and the “% inhibition apPOL 180'” value (DRC-1; concentration 20; 180') was 8.488%. For the same compound, the “% inhibition Apo pol 10'” value (DRC-1; concentration 40; 10') was 80.8761%, the “% inhibition Apol 90'” value (DRC-1; concentration 40; 90') was 73.3726% and the “% inhibition apPOL 180'” value (DRC-1; concentration 40; 180') was 64.1358%. For the same compound, the “% inhibition Apo pol 10'” value (DRC-1; concentration 80 (unit not given); 10') was 88.576%, the “% inhibition Apol 90'” value (DRC-1; concentration 80; 90') was 90.0975% and the “% inhibition apPOL 180'” value (DRC-1; concentration 80; 180') was 90.0477%. The “% inhibition Apo pol 5'” value (DRC-2; 5'; concentration 10) was 23%, the “% inhibition ApPOL 90'” value (DRC-2; 90'; concentration 10) was 23% and the “% inhibition ApPOL 90'” value (DRC-2; 90'; concentration 40) was 73%. The “% inhibition apPOL 180'” value (DRC-2; 180'; concentration 40) was 73%, the “% inhibition Apo pol 5'” value (DRC-2; concentration 2.5; 5') was 2.23% and the “% inhibition Apol 40'” value (DRC-2; concentration 2.5; 40') was 0.754%. The “% inhibition ApPOL 90'” value (DRC-2; concentration 2.5; 90') was -0.536%, the “% inhibition apPOL 180'” value (DRC-2; concentration 2.5; 180') was -0.06% and the “% inhibition Apo pol 5'” value (DRC-2; concentration 5; 5') was 4.72%. For the same compound, the “% inhibition Apol 40'” value (DRC-2; concentration 5; 40') was 6%, the “% inhibition ApPOL 90'” value (DRC-2; concentration 5; 90') was 4.71% and the “% inhibition apPOL 180'” value (DRC-2; concentration 5; 180') was 1.23%. For the same compound, the “% inhibition Apo pol 5'” value (DRC-2; concentration 10; 5') was 23%, the “% inhibition Apol 40'” value (DRC-2; concentration 10; 40') was 25% and the “% inhibition ApPOL 90'” value (DRC-2; concentration 10; 90') was 23%. The “% inhibition apPOL 180'” value (DRC-2; concentration 10; 180') was 16%, the “% inhibition Apo pol 5'” value (DRC-2; concentration 20; 5') was 42% and the “% inhibition Apol 40'” value (DRC-2; concentration 20; 40') was 49%. For the same compound, the “% inhibition ApPOL 90'” value (DRC-2; concentration 20; 90') was 47%, the “% inhibition apPOL 180'” value (DRC-2; concentration 20; 180') was 39% and the “% inhibition Apo pol 5'” value (DRC-2; concentration 40; 5') was 54%. The “% inhibition Apol 40'” value (DRC-2; concentration 40; 40') was 70%, the “% inhibition ApPOL 90'” value (DRC-2; concentration 40; 90') was 73% and the “% inhibition apPOL 180'” value (DRC-2; concentration 40; 180') was 73%. For the same compound, the “% inhibition Apo pol 5'” value (DRC-2; concentration 80; 5') was 55%, the “% inhibition Apol 40'” value (DRC-2; concentration 80; 40') was 74% and the “% inhibition ApPOL 90'” value (DRC-2; concentration 80; 90') was 78%. The “% inhibition apPOL 180'” value (DRC-2; concentration 80; 180') was 82%, the “DNA Pol” value [1] was 36 and the “DNA Pol” value (primary screen value; head prints only 'DNA Pol'; 90 min, 10 µM) was 36.
